Experimental data published in ChEMBL document CHEMBL3885881, “DrugMatrix”.

Organism: Rattus norvegicus
Assay: DrugMatrix - Regimen: Daily Repeat
Assay type: toxicity, organism-based, Sprague-Dawley
Design: regimen Daily Repeat, gender Male, age 6-8 weeks
Details: in vivo, po, route oral GAVAGE, vehicle .5 % CMC; for ABSOLUTE BASOPHIL / ABSOLUTE EOSINOPHIL / ABSOLUTE LYMPHOCYTE / ABSOLUTE MONOCYTE / ABSOLUTE SEGMENTED NEUTROPHIL / BASOPHIL / EOSINOPHIL / ERYTHROCYTE COUNT / HEMATOCRIT / HEMOGLOBIN / LEUKOCYTE COUNT / LYMPHOCYTE / MEAN CORPUSCULAR HEMOGLOBIN / MEAN CORPUSCULAR HEMOGLOBIN CONCENTRATION / MEAN CORPUSCULAR VOLUME / MONOCYTE / NEUTROPHIL / NUCLEATED RED BLOOD CELLS / PLATELET COUNT: tissue Blood; for ALANINE AMINOTRANSFERASE / ALBUMIN / ALKALINE PHOSPHATASE / ASPARTATE AMINOTRANSFERASE / BLOOD UREA NITROGEN / CARBON DIOXIDE / CHLORIDE / CHOLESTEROL / CREATINE PHOSPHOKINASE / CREATININE / GLUCOSE / LACTATE DEHYDROGENASE / LIPASE / PHOSPHORUS / POTASSIUM / SODIUM / TOTAL BILIRUBIN / TOTAL PROTEIN / URIC ACID: tissue Plasma
[1] = 2500 mg/kg, 120 h, dose level High, time 5 day
[2] = […], 72 h, dose 5.4 mg/Kg, dose level Low, time 3 day
[3] = […], 120 h, dose 5.4 mg/Kg, dose level Low, time 5 day

## CN1CCC[C@@H]1CCO[C@](C)(c1ccccc1)c1ccc(Cl)cc1 [CLEMASTINE]
[1]
  ABSOLUTE BASOPHIL: 0 CELLS/uL
  ABSOLUTE EOSINOPHIL: 0 CELLS/uL
  ABSOLUTE LYMPHOCYTE: 7767.5 CELLS/uL
  ABSOLUTE MONOCYTE: 575 CELLS/uL
  ABSOLUTE SEGMENTED NEUTROPHIL: 8407.5 CELLS/uL
  BASOPHIL: 0%
  EOSINOPHIL: 0%
  ERYTHROCYTE COUNT: 7.67 x10E6/uL
  HEMATOCRIT: 45.5%
  HEMOGLOBIN: 18 G/DL
  LEUKOCYTE COUNT: 16.75 x10E3/uL
  LYMPHOCYTE: 45.5%
  MEAN CORPUSCULAR HEMOGLOBIN: 23.5 pg
  MEAN CORPUSCULAR HEMOGLOBIN CONCENTRATION: 39.55 G/DL
  MEAN CORPUSCULAR VOLUME: 59.4 fL
  MONOCYTE: 3.5%
  NEUTROPHIL: 51%
  NUCLEATED RED BLOOD CELLS: 0 /100WBC
  PLATELET COUNT: 1417 x10E3/uL
  ALANINE AMINOTRANSFERASE: 189 u/L
  ALBUMIN: 3.45 G/DL
  ALKALINE PHOSPHATASE: 274 u/L
  ASPARTATE AMINOTRANSFERASE: 822.5 u/L
  BLOOD UREA NITROGEN: 37 mg/dL
  CARBON DIOXIDE: 21.5 mmol/L
  CHLORIDE: 84 MEQ/L
  CHOLESTEROL: 24 mg/dL
  CREATINE PHOSPHOKINASE: 1389.5 u/L
  CREATININE: 0.24 mg/dL
  GLUCOSE: 68.5 mg/dL
  LACTATE DEHYDROGENASE: 1904 u/L
  LIPASE: 11 u/L
  PHOSPHORUS: 22.25 mg/dL
  POTASSIUM: 6.91 MEQ/L
  SODIUM: 139.35 MEQ/L
  TOTAL BILIRUBIN: 0.25 mg/dL
  TOTAL PROTEIN: 5.3 G/DL
  URIC ACID: 6.55 mg/dL
[2]
  ABSOLUTE BASOPHIL: 0 CELLS/uL
  ABSOLUTE EOSINOPHIL: 41.67 CELLS/uL
  ABSOLUTE LYMPHOCYTE: 12326.67 CELLS/uL
  ABSOLUTE MONOCYTE: 80.67 CELLS/uL
  ABSOLUTE SEGMENTED NEUTROPHIL: 1517.67 CELLS/uL
  BASOPHIL: 0%
  EOSINOPHIL: 0.33%
  ERYTHROCYTE COUNT: 5.26 x10E6/uL
  HEMATOCRIT: 33.9%
  HEMOGLOBIN: 13.3 G/DL
  LEUKOCYTE COUNT: 13.97 x10E3/uL
  LYMPHOCYTE: 88%
  MEAN CORPUSCULAR HEMOGLOBIN: 25.3 pg
  MEAN CORPUSCULAR HEMOGLOBIN CONCENTRATION: 39.23 G/DL
  MEAN CORPUSCULAR VOLUME: 64.53 fL
  MONOCYTE: 0.67%
  NEUTROPHIL: 11%
  NUCLEATED RED BLOOD CELLS: 0 /100WBC
  PLATELET COUNT: 1091.33 x10E3/uL
  ALANINE AMINOTRANSFERASE: 56 u/L
  ALBUMIN: 4.07 G/DL
  ALKALINE PHOSPHATASE: 313.67 u/L
  ASPARTATE AMINOTRANSFERASE: 78.33 u/L
  BLOOD UREA NITROGEN: 16 mg/dL
  CARBON DIOXIDE: 30 mmol/L
  CHLORIDE: 100.33 MEQ/L
  CHOLESTEROL: 87 mg/dL
  CREATINE PHOSPHOKINASE: 239.33 u/L
  CREATININE: 0.19 mg/dL
  GLUCOSE: 158.67 mg/dL
  LACTATE DEHYDROGENASE: 247.33 u/L
  LIPASE: 9.33 u/L
  PHOSPHORUS: 11.17 mg/dL
  POTASSIUM: 5.9 MEQ/L
  SODIUM: 141.47 MEQ/L
  TOTAL BILIRUBIN: 0.2 mg/dL
  TOTAL PROTEIN: 5.63 G/DL
  URIC ACID: 1.23 mg/dL
[3]
  ABSOLUTE BASOPHIL: 0 CELLS/uL
  ABSOLUTE EOSINOPHIL: 52.33 CELLS/uL
  ABSOLUTE LYMPHOCYTE: 12918 CELLS/uL
  ABSOLUTE MONOCYTE: 156.33 CELLS/uL
  ABSOLUTE SEGMENTED NEUTROPHIL: 1306.67 CELLS/uL
  BASOPHIL: 0%
  EOSINOPHIL: 0.33%
  ERYTHROCYTE COUNT: 5.68 x10E6/uL
  HEMATOCRIT: 35.67%
  HEMOGLOBIN: 14.13 G/DL
  LEUKOCYTE COUNT: 14.43 x10E3/uL
  LYMPHOCYTE: 89.33%
  MEAN CORPUSCULAR HEMOGLOBIN: 24.93 pg
  MEAN CORPUSCULAR HEMOGLOBIN CONCENTRATION: 39.67 G/DL
  MEAN CORPUSCULAR VOLUME: 62.87 fL
  MONOCYTE: 1.33%
  NEUTROPHIL: 9%
  NUCLEATED RED BLOOD CELLS: 0.33 /100WBC
  PLATELET COUNT: 866 x10E3/uL
  ALANINE AMINOTRANSFERASE: 51 u/L
  ALBUMIN: 4.57 G/DL
  ALKALINE PHOSPHATASE: 318.67 u/L
  ASPARTATE AMINOTRANSFERASE: 79.67 u/L
  BLOOD UREA NITROGEN: 14 mg/dL
  CARBON DIOXIDE: 30.33 mmol/L
  CHLORIDE: 101.33 MEQ/L
  CHOLESTEROL: 68.33 mg/dL
  CREATINE PHOSPHOKINASE: 200.33 u/L
  CREATININE: 0.16 mg/dL
  GLUCOSE: 155.33 mg/dL
  LACTATE DEHYDROGENASE: 118.67 u/L
  LIPASE: 10 u/L
  PHOSPHORUS: 10.77 mg/dL
  POTASSIUM: 6.13 MEQ/L
  SODIUM: 141.6 MEQ/L
  TOTAL BILIRUBIN: 0.2 mg/dL
  TOTAL PROTEIN: 6.3 G/DL
  URIC ACID: 1.47 mg/dL
